Measured values: ChEMBL document CHEMBL1128863, “6-Imino-1,3-oxazines: a new class of hepatoprotectants” (Bioorg Med Chem Lett, 1995)

What was measured:
[1] = target: T1, Alanine aminotransferase 1 (Rattus norvegicus) (UniProt P25409); experiment: (§1) Hepatoprotective activity against glutamate pyruvate transaminase (GTP) for thioacetamide-induced toxicity in rats at 6 mg/kg dose for 7 days by ip administration; assay type: functional, organism-based; parameters: dose 6 mg/kg
T1 sequence (whole entry): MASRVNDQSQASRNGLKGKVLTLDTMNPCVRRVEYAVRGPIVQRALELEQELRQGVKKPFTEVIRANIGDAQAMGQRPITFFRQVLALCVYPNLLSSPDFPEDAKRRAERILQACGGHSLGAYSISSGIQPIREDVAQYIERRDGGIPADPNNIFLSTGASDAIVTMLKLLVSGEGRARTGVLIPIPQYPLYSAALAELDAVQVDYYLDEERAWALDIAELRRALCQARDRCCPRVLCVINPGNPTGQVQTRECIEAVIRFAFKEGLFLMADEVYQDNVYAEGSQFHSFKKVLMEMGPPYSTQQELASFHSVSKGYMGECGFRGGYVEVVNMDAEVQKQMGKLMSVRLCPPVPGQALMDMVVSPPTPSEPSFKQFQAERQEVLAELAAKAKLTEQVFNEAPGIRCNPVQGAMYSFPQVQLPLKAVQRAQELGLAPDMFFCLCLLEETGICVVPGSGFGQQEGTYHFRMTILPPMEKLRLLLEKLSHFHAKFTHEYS

[2] = target: T2, Alkaline phosphatase, tissue-nonspecific isozyme (Rattus norvegicus) (UniProt P08289); experiment: (§2) Hepatoprotective activity against alkaline phosphatase (ALP) for thioacetamide-induced toxicity in rats at 6 mg/kg dose for 7 days by ip administration; assay type: functional, organism-based; parameters: dose 6 mg/kg
T2 sequence (whole entry): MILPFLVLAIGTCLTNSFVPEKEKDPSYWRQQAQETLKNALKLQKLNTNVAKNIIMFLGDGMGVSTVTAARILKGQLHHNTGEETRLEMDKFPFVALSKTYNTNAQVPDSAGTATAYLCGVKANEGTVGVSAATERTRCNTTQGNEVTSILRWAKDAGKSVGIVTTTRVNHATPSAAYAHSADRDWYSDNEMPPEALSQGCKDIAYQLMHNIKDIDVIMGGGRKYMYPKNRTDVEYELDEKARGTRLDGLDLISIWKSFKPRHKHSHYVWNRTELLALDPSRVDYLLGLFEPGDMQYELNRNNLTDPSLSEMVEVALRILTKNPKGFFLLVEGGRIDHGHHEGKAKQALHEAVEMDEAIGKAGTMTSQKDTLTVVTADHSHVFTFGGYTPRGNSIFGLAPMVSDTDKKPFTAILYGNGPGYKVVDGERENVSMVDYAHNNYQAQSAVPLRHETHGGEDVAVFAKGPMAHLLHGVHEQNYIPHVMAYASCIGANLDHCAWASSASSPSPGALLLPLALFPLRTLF

Rattus norvegicus [3] = experiment: Hepatoprotective activity against bilirubin for thioacetamide-induced toxicity in rats at 6 mg/kg dose for 7 days by ip administration; assay type: functional
[4] = Hepatoprotective activity against glutamate oxaloacetate transaminase (GOT) for thioacetamide-induced toxicity in rats at 6 mg/kg dose for 7 days by ip administration; assay type: functional
[5] = Lethal dose administered perorally in rats in various models of liver injuries; assay type: toxicity; details: rat, in vivo, po
Rattus norvegicus [6] = experiment: Effective dose administered perorally in rats in various models of liver injuries; assay type: functional
[7] = target: Alanine aminotransferase 1 (Rattus norvegicus) (UniProt P25409); experiment: as §1; assay type: functional, organism-based; parameters: dose 6 mg/kg; remark: listed apart in the source
[8] = target: Alkaline phosphatase, tissue-nonspecific isozyme (Rattus norvegicus) (UniProt P08289); experiment: as §2; assay type: functional, organism-based; parameters: dose 6 mg/kg; remark: listed apart in the source

| Compound | Protection [1] [%] | Protection [2] [%] | Protection (Rattus norvegicus [3]; route intraperitoneal) [%] | Protection ([4]; route intraperitoneal) [%] | LD50 [5] [mg/kg] | ED (Rattus norvegicus [6]) [mg/kg] | Protection [7] [%] | Protection [8] [%] | Protection (Rattus norvegicus [3]) [%] | Protection [4] [%] |
| --- | --- | --- | --- | --- | --- | --- | --- | --- | --- | --- |
| CCOC(=O)c1c(SC)nc(C)oc1=N | 29 | 36 | 11 | 26 |  |  |  |  |  |  |
| CCOC(=O)c1c(SC)nc(-c2ccccc2)oc1=N | 39 | 41 | 33 | 33 |  |  |  |  |  |  |
| CSc1nc(-c2ccccc2)oc(=N)c1C#N | 19 | 30 | 19 | 26 |  |  |  |  |  |  |
| CCOC(=O)c1c(SC)nc(C(F)(F)F)oc1=N | 54 | 28 | 14 | 66 |  |  |  |  |  |  |
| COc1ccn(C)c(=O)c1C#N [RICININE] |  |  |  |  | 80 | 6 |  |  |  |  |
| N#Cc1c(N)oc(-c2ccccc2)n/c1=N\N | 19 | 12 | 0 | 17 |  |  |  |  |  |  |
| SILYMARIN |  |  |  |  |  |  | 47.2 | 47 | 61 | 50.1 |
